Results: ChEMBL document CHEMBL1144535, “3D pharmacophore based virtual screening of T-type calcium channel blockers” (Bioorg Med Chem, 2007)
pIC50: −log10 of the molar value. Active and inactive are the calls of the source. No cut-off for these calls is given here.

Columns and labels:
Format in all cases: cell-based
[1] = target: Voltage-dependent T-type calcium channel subunit alpha-1H (Homo sapiens) (UniProt O95180); assay: Inhibition of alpha-1H T-type calcium channel Cav3.2 expressed in Xenopus unfertilized oocytes at 100 uM by two-electrode voltage clamp method; details: Oocyte
[2] = target: T1, Voltage-dependent T-type calcium channel subunit alpha-1G (Homo sapiens, UniProt O43497); assay: Inhibition of alpha-1G T-type calcium channel expressed in HEK293 cells by electrophysiological method
[3] = target: T1, Voltage-dependent T-type calcium channel subunit alpha-1G; assay: Inhibition of alpha-1G T-type calcium channel expressed in HEK293 cells at 10 uM by electrophysiological method
[4] = Inhibition of alpha-1B N-type calcium channel expressed in HEK293 cells by electrophysiological method

T1 sequence (O43497 whole entry): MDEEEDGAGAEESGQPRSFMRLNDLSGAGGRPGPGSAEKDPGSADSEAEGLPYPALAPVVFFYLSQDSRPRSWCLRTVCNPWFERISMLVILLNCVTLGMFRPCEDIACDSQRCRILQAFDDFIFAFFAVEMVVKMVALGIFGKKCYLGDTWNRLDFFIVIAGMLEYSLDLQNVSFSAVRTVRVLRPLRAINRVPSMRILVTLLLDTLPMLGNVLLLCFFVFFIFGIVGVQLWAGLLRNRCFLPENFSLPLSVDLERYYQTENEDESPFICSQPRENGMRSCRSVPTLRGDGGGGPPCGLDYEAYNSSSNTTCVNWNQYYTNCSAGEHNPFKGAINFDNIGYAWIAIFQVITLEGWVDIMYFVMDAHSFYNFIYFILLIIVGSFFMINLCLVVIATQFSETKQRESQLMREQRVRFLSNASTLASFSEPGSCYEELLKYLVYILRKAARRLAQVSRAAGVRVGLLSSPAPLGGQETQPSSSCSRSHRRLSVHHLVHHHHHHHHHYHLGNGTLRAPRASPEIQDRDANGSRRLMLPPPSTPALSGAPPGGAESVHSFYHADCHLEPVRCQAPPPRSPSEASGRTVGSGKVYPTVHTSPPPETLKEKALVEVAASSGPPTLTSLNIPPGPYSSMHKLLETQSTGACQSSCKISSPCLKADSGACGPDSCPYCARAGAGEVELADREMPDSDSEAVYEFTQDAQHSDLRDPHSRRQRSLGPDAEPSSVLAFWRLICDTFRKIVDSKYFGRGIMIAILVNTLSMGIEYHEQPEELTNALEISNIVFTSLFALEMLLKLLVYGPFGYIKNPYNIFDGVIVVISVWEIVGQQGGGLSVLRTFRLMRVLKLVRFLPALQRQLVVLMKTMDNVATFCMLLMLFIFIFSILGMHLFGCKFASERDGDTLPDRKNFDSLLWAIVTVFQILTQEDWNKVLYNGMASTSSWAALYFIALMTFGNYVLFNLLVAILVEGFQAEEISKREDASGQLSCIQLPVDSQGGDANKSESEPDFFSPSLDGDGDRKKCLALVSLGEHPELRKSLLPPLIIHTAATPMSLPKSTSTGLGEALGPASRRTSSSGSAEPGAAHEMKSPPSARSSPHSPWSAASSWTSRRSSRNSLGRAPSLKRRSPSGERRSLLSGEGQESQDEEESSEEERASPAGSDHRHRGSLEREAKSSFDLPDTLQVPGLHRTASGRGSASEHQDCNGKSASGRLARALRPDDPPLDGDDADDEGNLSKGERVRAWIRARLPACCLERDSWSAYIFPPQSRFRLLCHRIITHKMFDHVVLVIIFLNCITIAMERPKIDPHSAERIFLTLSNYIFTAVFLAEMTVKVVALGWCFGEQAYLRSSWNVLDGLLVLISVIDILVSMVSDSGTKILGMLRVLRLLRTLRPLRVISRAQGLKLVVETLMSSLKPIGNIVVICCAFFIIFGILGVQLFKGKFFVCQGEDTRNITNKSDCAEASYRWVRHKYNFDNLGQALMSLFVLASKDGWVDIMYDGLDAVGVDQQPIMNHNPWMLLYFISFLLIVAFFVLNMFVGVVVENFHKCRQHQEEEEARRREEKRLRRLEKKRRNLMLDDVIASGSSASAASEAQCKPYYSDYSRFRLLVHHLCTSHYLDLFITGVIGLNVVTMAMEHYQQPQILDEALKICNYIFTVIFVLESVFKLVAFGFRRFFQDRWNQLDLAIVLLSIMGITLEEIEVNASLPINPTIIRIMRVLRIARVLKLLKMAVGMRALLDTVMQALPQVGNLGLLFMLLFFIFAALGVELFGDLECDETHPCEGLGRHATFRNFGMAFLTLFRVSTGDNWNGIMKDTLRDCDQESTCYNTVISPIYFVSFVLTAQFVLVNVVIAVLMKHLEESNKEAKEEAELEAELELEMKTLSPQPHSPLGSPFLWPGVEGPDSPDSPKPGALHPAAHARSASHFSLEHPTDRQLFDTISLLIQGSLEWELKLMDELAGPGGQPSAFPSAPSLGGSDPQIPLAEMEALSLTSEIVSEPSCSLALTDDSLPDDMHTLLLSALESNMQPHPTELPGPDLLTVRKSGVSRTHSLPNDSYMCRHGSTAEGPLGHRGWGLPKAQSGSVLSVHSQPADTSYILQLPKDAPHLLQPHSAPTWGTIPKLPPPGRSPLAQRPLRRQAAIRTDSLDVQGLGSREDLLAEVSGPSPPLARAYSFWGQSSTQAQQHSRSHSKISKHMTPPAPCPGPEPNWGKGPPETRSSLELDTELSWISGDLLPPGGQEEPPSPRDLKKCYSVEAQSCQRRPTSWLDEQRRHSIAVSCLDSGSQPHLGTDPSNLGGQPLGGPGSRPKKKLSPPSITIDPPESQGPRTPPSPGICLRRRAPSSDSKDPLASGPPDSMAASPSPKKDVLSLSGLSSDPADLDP
Sequence of Voltage-dependent T-type calcium channel subunit alpha-1H (Homo sapiens) (O95180 whole entry): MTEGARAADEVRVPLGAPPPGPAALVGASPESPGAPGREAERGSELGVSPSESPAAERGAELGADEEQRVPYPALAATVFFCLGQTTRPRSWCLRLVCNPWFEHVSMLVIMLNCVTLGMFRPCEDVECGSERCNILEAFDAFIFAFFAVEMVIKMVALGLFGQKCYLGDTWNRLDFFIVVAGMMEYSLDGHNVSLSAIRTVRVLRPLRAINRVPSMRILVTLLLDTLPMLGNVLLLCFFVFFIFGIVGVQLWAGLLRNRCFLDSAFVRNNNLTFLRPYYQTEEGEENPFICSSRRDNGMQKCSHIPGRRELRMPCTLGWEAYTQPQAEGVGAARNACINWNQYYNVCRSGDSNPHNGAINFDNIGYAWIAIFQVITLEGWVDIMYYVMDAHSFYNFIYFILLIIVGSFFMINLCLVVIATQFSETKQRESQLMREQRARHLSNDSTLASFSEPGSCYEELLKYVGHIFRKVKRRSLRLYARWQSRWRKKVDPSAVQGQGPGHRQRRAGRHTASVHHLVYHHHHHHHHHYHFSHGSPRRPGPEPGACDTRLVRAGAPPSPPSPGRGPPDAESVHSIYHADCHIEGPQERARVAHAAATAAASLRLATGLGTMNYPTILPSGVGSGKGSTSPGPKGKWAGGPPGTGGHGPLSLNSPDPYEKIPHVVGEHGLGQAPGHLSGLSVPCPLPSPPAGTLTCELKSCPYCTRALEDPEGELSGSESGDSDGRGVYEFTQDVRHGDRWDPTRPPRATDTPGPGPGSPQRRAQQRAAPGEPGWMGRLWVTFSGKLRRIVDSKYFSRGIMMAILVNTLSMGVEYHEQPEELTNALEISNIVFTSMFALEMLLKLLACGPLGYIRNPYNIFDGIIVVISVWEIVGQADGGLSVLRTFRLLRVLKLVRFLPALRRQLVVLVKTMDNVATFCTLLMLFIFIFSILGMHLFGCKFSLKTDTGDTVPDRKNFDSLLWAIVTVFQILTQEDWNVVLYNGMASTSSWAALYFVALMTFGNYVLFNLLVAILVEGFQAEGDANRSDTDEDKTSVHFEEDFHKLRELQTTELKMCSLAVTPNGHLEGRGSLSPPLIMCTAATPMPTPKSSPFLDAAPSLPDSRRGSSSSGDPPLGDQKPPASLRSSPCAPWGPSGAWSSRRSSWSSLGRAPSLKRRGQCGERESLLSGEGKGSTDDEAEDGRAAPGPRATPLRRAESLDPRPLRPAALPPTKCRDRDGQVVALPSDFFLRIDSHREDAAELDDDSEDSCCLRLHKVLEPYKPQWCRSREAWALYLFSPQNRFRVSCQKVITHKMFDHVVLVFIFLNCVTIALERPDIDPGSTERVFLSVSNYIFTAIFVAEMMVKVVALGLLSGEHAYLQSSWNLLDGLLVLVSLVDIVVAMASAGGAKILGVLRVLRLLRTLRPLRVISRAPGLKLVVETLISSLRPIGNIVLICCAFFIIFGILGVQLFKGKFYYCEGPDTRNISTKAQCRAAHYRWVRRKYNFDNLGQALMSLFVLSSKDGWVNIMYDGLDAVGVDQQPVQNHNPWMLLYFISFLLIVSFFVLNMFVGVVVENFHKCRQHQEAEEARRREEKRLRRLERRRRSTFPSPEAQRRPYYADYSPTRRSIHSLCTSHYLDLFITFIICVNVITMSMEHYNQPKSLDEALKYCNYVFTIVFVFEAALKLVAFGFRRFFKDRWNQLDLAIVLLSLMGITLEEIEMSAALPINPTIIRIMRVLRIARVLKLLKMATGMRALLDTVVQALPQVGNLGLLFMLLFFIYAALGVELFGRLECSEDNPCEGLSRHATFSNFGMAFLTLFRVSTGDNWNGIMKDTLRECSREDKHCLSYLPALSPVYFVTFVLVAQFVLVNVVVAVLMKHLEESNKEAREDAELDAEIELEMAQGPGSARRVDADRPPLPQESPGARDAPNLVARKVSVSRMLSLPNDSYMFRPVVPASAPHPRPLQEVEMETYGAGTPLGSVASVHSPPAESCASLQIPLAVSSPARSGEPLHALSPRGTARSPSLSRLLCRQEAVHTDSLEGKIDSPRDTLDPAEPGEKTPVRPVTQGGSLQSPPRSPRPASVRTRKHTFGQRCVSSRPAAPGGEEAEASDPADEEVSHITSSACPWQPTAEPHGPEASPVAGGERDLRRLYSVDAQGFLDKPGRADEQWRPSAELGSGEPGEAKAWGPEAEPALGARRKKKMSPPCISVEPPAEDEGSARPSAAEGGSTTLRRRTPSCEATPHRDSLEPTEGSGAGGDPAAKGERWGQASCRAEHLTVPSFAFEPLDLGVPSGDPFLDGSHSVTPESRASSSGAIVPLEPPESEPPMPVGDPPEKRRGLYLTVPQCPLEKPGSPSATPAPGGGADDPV

inhibition [1]	SMILES	further results
9.54%	CCN(CC)CCNC(=O)c1ccc(CNc2nc(=S)[nH]c3ccccc23)cc1	–
13%	CCN(CC)CCNC(=O)c1cn(-c2ccc(Cl)cc2)c(=O)c2ccccc12	–
41.9%	CCN(CC)CCNC(=O)c1ccc(NC(=O)c2cn(CC)c3nc(C)ccc3c2=O)cc1	–
72.9%	O=C(NCCCN1CCCCC1)c1ccc2c(=O)n(Cc3ccc(Cl)cc3)c(=S)[nH]c2c1	pIC50 [2]: 5.68; pIC50 [4]: 5.09; inhibition [3]: 34.3%
86.5%	CN(c1ccc(Br)cc1)S(=O)(=O)c1ccc2[nH]cc(C(=O)N3CCN(Cc4ccccc4)CC3)c(=O)c2c1	–
11.4%	O=C(O)c1ccc2c(=O)n(Cc3ccc(CNCCCN4CCN(c5cccc(Cl)c5)CC4)cc3)c(=S)[nH]c2c1	–
inactive	O=C(NCCCN1CCN(c2ccccc2F)CC1)c1ccc(CNc2nc(=S)[nH]c3ccccc23)cc1	–
84.1%	O=C(NCCCN1CCCC1)c1ccc2c(=O)n(Cc3ccc(Cl)cc3)c(=S)[nH]c2c1	pIC50 [2]: 5.94; pIC50 [4]: 4.76; inhibition [3]: 85.4%
25.7%	CN(CCCNC(=O)c1ccc(-n2c(=S)[nH]c3ccc(Br)cc3c2=O)cc1)Cc1ccccc1	–
15.9%	O=C(NCCCN1CCOCC1)c1ccc2c(=O)n(-c3cccc(C(F)(F)F)c3)c(=S)[nH]c2c1	–
2.47%	O=C(NCCCn1ccnc1)c1ccc2c(=O)n(-c3ccccc3)c(=S)[nH]c2c1	–
52.2%	CCN(CC)CCNC(=O)C1c2ccccc2C(=O)N(Cc2ccc(F)cc2)C1c1ccc(OC)cc1 (stereo not given)	–
62.6%	CC1CCN(CCCNC(=O)c2ccc(Cn3c(=S)[nH]c4ccc(Br)cc4c3=O)cc2)CC1	–
15.9%	O=C(NCCCN1CCOCC1)c1ccc2c(=O)n(Cc3ccccc3)c(=S)[nH]c2c1	–
98.3%	CCC1CCCCN1CCCNC(=O)c1ccc2c(=O)n(Cc3ccc(Cl)cc3)c(=S)[nH]c2c1 (stereo not given)	pIC50 [4]: 5.68; inhibition [3]: 88.3%
10.3%	COC(=O)c1ccc2c(=O)n(Cc3ccc(C(=O)N4CCC(N5CCCCC5)CC4)cc3)c(=S)[nH]c2c1	–
28.3%	O=C(CSC1CN(C(c2ccccc2)c2ccccc2)C1)NNC(=O)c1ccc(Cl)cc1	–

More lines, now with the values behind:

SMILES	inhibition [1]	further results
O=C1CC(N2CCN(C(c3ccccc3)c3ccccc3)CC2)C(=O)N1c1ccc(Cl)c(C(F)(F)F)c1 (stereo not given)	41.8%	–
CN(C)CCNC(=O)c1ccc2c(=O)n(Cc3ccc(Cl)cc3)c(=S)[nH]c2c1	–	pIC50 [2]: 4.27; inhibition [3]: 43.5%
O=C(CCC(=O)Nc1nc(-c2cc3cc(Cl)ccc3oc2=O)cs1)NCCCN1CCCC1	43.9%	–
O=C(CN1CCN(C2c3ccccc3-c3ccccc32)CC1)Nc1cc(C(F)(F)F)ccc1Cl	–	Activity [1]: inactive
CCOC(=O)c1c(C)n(Cc2ccccc2)c2ccc(OCC(O)CN3CCN(Cc4ccccc4)CC3)cc12 (stereo not given)	8.83%	–
FC(F)(F)c1cccc(N2CCN(CCNCc3cc(-c4ccccc4C(F)(F)F)no3)CC2)c1	–	pIC50 [2]: 5.99
FC(F)(F)c1cccc(N2CCN(Cn3nc(-c4ccccc4)n(-c4ccccc4)c3=S)CC2)c1	11.4%	–
COc1ccccc1-c1cc(CNCCN2CCN(c3ccc(C)cc3C)CC2)on1	–	pIC50 [2]: 5.69
O=[N+]([O-])c1ccccc1S(=O)(=O)N1CCN(Cc2ccccc2Cl)CC1	7.57%	–
Cc1ccc(C(=O)Oc2ccc(NC3=NS(=O)(=O)c4ccccc43)cc2CN2CCCCC2)cc1	13.5%	–
O=C(NC1CCN(Cc2ccccc2)CC1)c1ccc2c(=O)n(Cc3ccc(Cl)cc3)c(=S)[nH]c2c1	–	Activity [1]: inactive
CCCCN(C)CCNC(=O)c1ccc2c(=O)n(Cc3ccc(Cl)cc3)c(=S)[nH]c2c1	–	pIC50 [2]: 4.94; inhibition [3]: 34.3%
O=C(NCCCN1CCCCCC1)c1ccc2c(=O)n(Cc3ccc(Cl)cc3)c(=S)[nH]c2c1	–	pIC50 [2]: 5.85; pIC50 [4]: 5.24; inhibition [3]: 85.4%
O=C(CN1CCN(C(c2ccccc2)c2ccccc2)CC1)NCc1ccc2c(c1)OCO2	12.5%	–
Cc1ccc(CSc2nc3cc(C(=O)NCCCN4CCOCC4)ccc3c(=O)n2-c2ccc(F)cc2)cc1	–	Activity [1]: inactive
O=C1c2ccccc2C(=O)N1CCCN1CCN(Cc2c(F)cccc2Cl)CC1	8.1%	–
CN(CCCNC(=O)c1ccc2c(=O)n(Cc3ccc(Cl)cc3)c(=S)[nH]c2c1)Cc1ccccc1	–	pIC50 [2]: 5.33; inhibition [3]: 37.5%
O=C1c2ccccc2C(=O)N1CC#CCN1CCN(C(c2ccccc2)c2ccccc2)CC1	–	Activity [1]: inactive
Cc1cccc(N2CCN(CC(=O)Nc3ccc(Cl)cc3C(=O)c3ccccc3Br)CC2C)c1 (stereo not given)	9.23%	–
O=C(CN(c1cccc([N+](=O)[O-])c1)S(=O)(=O)c1ccccc1)N1CCN(Cc2ccccc2)CC1	42.5%	–
CCN1C(N2CCCCC2)=Nc2ccccc2C1CC(=O)NCc1ccc(NS(=O)(=O)c2ccc(C)cc2)cc1 (stereo not given)	–	pIC50 [2]: 6.02
COc1ccccc1-c1cc(CNCCN2CCN(c3cccc(C(F)(F)F)c3)CC2)on1	–	pIC50 [2]: 5.69
CCN(CC)CCOC(=O)c1ccc(NC(=O)c2cc3ccccc3o2)cc1	34.4%	–

SMILES	inhibition [1]	further results
O=C1CC(N2CCN(C(c3ccc(F)cc3)c3ccc(F)cc3)CC2)C(=O)N1c1ccc(Cl)cc1 (stereo not given)	51.8%	–
CCN1CCN(CCCNC(=O)c2ccc3c(=O)n(Cc4ccc(Cl)cc4)c(=S)[nH]c3c2)CC1	–	pIC50 [2]: 5.60; pIC50 [4]: 5.15; inhibition [3]: 78.9%
CCN(CC)CCOC(=O)c1ccc(N/C=C2/C(=O)NC(=O)N(CCc3ccccc3)C2=O)cc1	–	Activity [1]: inactive
CC1CC(C)CN(CCCNc2ccc(C(=O)Nc3ccc(C(F)(F)F)cc3)cc2[N+](=O)[O-])C1 (stereo not given)	56%	–
CCOC(=O)c1cc2c(c(CSc3nc4ccccc4c(=O)n3CCCN3CCCCC3)c1)OCOC2	35.3%	–
Cc1ccc(N2CCN(CCNCc3cc(-c4ccccc4C(F)(F)F)no3)CC2)c(C)c1	–	pIC50 [2]: 5.82
COc1cccc(NC2=C3C(=O)c4ccccc4C4ON=C(C(N5CCN(Cc6cc(Cl)ccc6OC)CC5)=C2)C34)c1 (stereo not given)	16.1%	–
Cc1ccc(N(CC(O)CN(Cc2ccccc2)Cc2ccccc2)S(=O)(=O)c2ccccc2[N+](=O)[O-])cc1 (stereo not given)	34.7%	–
CC1CCN(CCNC(=O)c2ccc(-n3c(=S)[nH]c4ccccc4c3=O)cc2)CC1	–	Activity [1]: inactive
CC1CCN(CCCNC(=O)c2ccc3c(=O)n(Cc4ccc(Cl)cc4)c(=S)[nH]c3c2)CC1	–	pIC50 [2]: 5.96; pIC50 [4]: 5.19; inhibition [3]: 89.2%
O=C(NCCCn1ccnc1)c1ccc2c(=O)n(-c3ccc(F)c(Cl)c3)c(=S)[nH]c2c1	–	Activity [1]: inactive
O=C1CC(N2CCN(C(c3ccccc3)c3ccc(Cl)cc3)CC2)C(=O)N1c1cccc(Cl)c1 (stereo not given)	16.6%	–
CN1CCN(C(=O)c2ccc3c(=O)n(Cc4ccc(Cl)cc4)c(=S)[nH]c3c2)CC1	–	pIC50 [2]: 4.94; inhibition [3]: 51.4%
OC(CN1CCN(C(c2ccccc2)c2ccccc2)CC1)Oc1cccc(C(F)(F)F)c1 (stereo not given)	58.3%	–
CCOC(=O)c1c(NC(=O)c2ccc(S(=O)(=O)N(C)c3ccccc3)cc2)sc2c1CCN(CC)C2	22%	–
O=S(=O)(c1cccc2nonc12)N1CCN(C(c2ccccc2)c2ccccc2)CC1	15.2%	–
O=C1CC(N2CCN(C(c3ccc(F)cc3)c3ccc(F)cc3)CC2)C(=O)N1c1ccc(Br)cc1 (stereo not given)	37.1%	–
O=C(CCN1C(=O)c2ccccc2C1=O)N1CCN(Cc2ccc(Cl)cc2Cl)CC1	12%	–
O=S(=O)(c1ccccc1)N(CC(O)CN(Cc1ccccc1)Cc1ccccc1)c1ccccc1 (stereo not given)	15.2%	–
COC(=O)c1ccc(S(=O)(=O)N2CCN(C(c3ccccc3)c3ccccc3)CC2)n1C	–	Activity [1]: inactive
O=C(CCN1C(=O)c2ccccc2C1=O)N1CCN(C(c2ccccc2)c2ccccc2)CC1	43.3%	–
CCN1CCN(c2cc(C)c3cc(NC(=O)/C=C/c4cccc(Cl)c4)ccc3n2)CC1	–	Activity [1]: inactive
